These results are taken from patent US11517629B2, “Methods of treating cells containing fusion genes by genomic targeting” (UNIVERSITY OF PITTSBURGH—OF THE COMMONWEALTH SYSTEM OF …, priority 2016, dated 2022).

The test system of assay [1] is PC3 BP. Nature of the assay: TUNEL assay of xenografted cancers. It is filed as in vivo, human. The conditions noted are these: PC3 BP clone containing TMEM135-CCDC67 breakpoint; FIG. 16B, treated with Ad-TC. The procedure:
(§1) FIG. 16A-B. (A) Expression of Cas9^D10A and HSV1-tk in HUH7 or HEP3B tumors treated with Ad-TC or pAD5-Cas9^D10A-gRNAMAN2A1^int13-gRNAFER^int14/pAD-MAN2A1^int13-EGFP-tk-FER^int14 (Ad-MF). Green arrows indicate unstained mouse stromal cells. (B) Genome therapy induced apoptosis of xenografted cancers that contain fusion gene breakpoints. Terminal deoxynucleotidyl transferase (TdT) dUTP Nick-End Labeling (TUNEL) assays were performed on the PC3 BP, DU145 BP, PC3 CMV, DU145 CMV, or HUH7 xenografted cancers treated with either Ad-TC or Ad-MF.
(§2) Immunohistochemistry. Immunohistochemistry was performed as described previously 6 with antibodies specific for HSV-1 TK (1:100 dilution) or for Cas9 (1:100 dilution). The antibody was omitted in negative controls. The sections were then incubated with horseradish peroxidase conjugated anti-rabbit IgG for 30 minutes at room temperature (ABC kit from Vector Labs, Inc). Slides were then exposed to a 3,3′-diaminobenzidine solution to visualize immunostaining. Counterstaining was performed by incubating the slides in 1% Hematoxylin solution for 2 minutes at room temperature. The slides were then rinsed briefly in distilled water to remove excessive staining. The procedure of TUNEL assays is similar to that previously described (13).

The subject of assay [2] is DU145 BP. Nature of the assay: TUNEL assay of xenografted cancers. The assay is classed as in vivo, human. The settings on record: DU145 BP clone containing TMEM135-CCDC67 breakpoint; FIG. 16B, treated with Ad-TC. The procedure:
as §1, §2

For the compound `Nc1nc(O)c2ncn(COC(CO)CO)c2n1` [ganciclovir], the “cell death observed by tunel staining” value in assay [1] and in assay [2] was “significant cell death” each time.
